# US20070196406A1, “1,3-Dimethylbutyl carboxanilides for controlling undesirable micro-organisms” (priority 2003, published 2007)
# How the values were obtained:
# Puccinia recondita = assay: Puccinia test (wheat)/protective; type: in vivo; conditions: 240 h, wheat plants, protective spray, evaluation 10 days after inoculation, read-out: Efficacy in %
# Method: Puccinia Test (Wheat)/Protective
# Solvent: 50 parts by weight of N,N-dimethylacetamide
# Emulsifier: 1 part by weight of alkylaryl polyglycol ether
# (§1) To produce a suitable preparation of active compound, 1 part by weight of active compound is mixed with the stated amounts of solvent and emulsifier, and the concentrate is diluted with water to the desired concentration.
# To test for protective activity, young plants are sprayed with the preparation of active compound at the stated application rate. After the spray coating has dried on, the plants are sprayed with a conidia suspension of Puccinia recondita. The plants remain in an incubation cabinet at 20° C. and 100% relative atmospheric humidity for 48 hours.
# The plants are then placed in a greenhouse at a temperature of about 20° C. and a relative atmospheric humidity of 80% to promote the development of rust pustules.
# (§2) Evaluation is carried out 10 days after the inoculation. 0% means an efficacy which corresponds to that of the control, whereas an efficacy of 100% means that no infection is observed.
# Botrytis cinerea = assay: Botrytis test (bean)/protective; type: in vivo; conditions: 48 h, bean plants, protective spray, evaluation two days after inoculation, read-out: Efficacy in %
# Method: Botrytis Test (Bean)/Protective
# (§3) • Solvents: 24.5 parts by weight of acetone • 24.5 parts by weight of dimethylacetamide • Emulsifier: 1 part by weight of alkylaryl polyglycol ether
# as §1
# To test for protective activity, young plants are sprayed with the preparation of active compound at the stated application rate. After the spray coating has dried on, 2 small pieces of agar colonized by Botrytis cinerea are placed under each leaf. The inoculated plants are placed in a dark chamber at about 20° C. and 100% relative atmospheric humidity.
# Two days after the inoculation, the size of the infected areas on the leaves is evaluated. 0% means an efficacy which corresponds to that of the control, whereas an efficacy of 100% means that no infection is observed.
# Venturia inaequalis = assay: Venturia test (apple)/protective; type: in vivo; conditions: 240 h, apple plants, protective spray, evaluation 10 days after inoculation, read-out: Efficacy in %
# Method: Venturia Test (Apple)/Protective
# as §3
# (§4) To produce a suitable preparation of active compound, 1 part by weight of active compound is mixed with the stated amounts of solvents and emulsifier, and the concentrate is diluted with water to the desired concentration.
# To test for protective activity, young plants are sprayed with the preparation of active compound at the stated application rates. After the spray coating has dried on, the plants are inoculated with an aqueous conidia suspension of the apple scab pathogen Venturia inaequalis and then remain in an incubation cabinet about 20° C. and 100% relative atmospheric humidity for 1 day.
# The plants are then placed in a greenhouse at about 21° C. and a relative atmospheric humidity of about 90%.
# as §2
# Podosphaera leucotricha = assay: Podosphaera test (apple)/protective; type: in vivo; conditions: 240 h, apple plants, protective spray, evaluation 10 days after inoculation, read-out: Efficacy in %
# Method: Podosphaera Test (Apple)/Protective
# • Solvents: 24.5 parts by weight of acetone • 24.5 parts by weight of dimethylacetamide • Emulsifier: 1 part by weight of alklylaryl polyglycol ether
# as §4
# To test for protective activity, young plants are sprayed with the preparation of active compound at the stated application rate. After the spray coating has dried on, the plants are inoculated with an aqueous spore suspension of the apple mildew pathogen Podosphaera leucotricha. The plants are then placed in a greenhouse at about 23° C. and a relative atmospheric humidity of about 70%.
# as §2
# [1] = logP determination by HPLC on a reversed-phase column (EEC Directive 79/831 Annex V.A8); type: physicochemical; conditions: reversed-phase C18 HPLC column, pH 2.3, C 18 reversed phase, 43° C.
# Method: The logP values given in the Preparation Examples and tables above are determined in accordance with EEC Directive 79/831 Annex V.A8 by HPLC (High Performance Liquid Chromatography) on a reversed-phase column (C 18). Temperature: 43° C.
# The determination is carried out in the acidic range at pH 2.3 using the mobile phases 0.1% aqueous phosphoric acid and acetonitrile; linear gradient from 10% acetonitrile to 90% acetonitrile.
# Calibration is carried out using unbranched alkan-2-ones (with 3 to 16 carbon atoms) with known logP values (determination of the logP values by the retention times using linear interpolation between two successive alkanones).
structure (smiles),measurement,setting,value
Cc1nc(Cl)sc1C(=O)Nc1ccccc1C(C)CC(C)C (stereo not shown),pest or weed control at 500 g/ha,Puccinia recondita,100%
Cc1sccc1C(=O)Nc1ccccc1C(C)CC(C)C (stereo not shown) [drawing 107],pest or weed control at 100 g/ha,Botrytis cinerea,97%
Cc1ccsc1C(=O)Nc1ccc(F)cc1C(C)CC(C)C (stereo not shown) [drawing 103],pest or weed control at 100 g/ha,Venturia inaequalis,100%
Cc1sccc1C(=O)Nc1ccccc1C(C)CC(C)C (stereo not shown) [drawing 83],pest or weed control at 100 g/ha,Podosphaera leucotricha,100%
CC(C)CC(C)c1cc(F)ccc1NC(=O)c1cccnc1Cl (stereo not shown),pest or weed control at 500 g/ha,Puccinia recondita,100%
Cc1sccc1C(=O)Nc1ccc(F)cc1C(C)CC(C)C (stereo not shown) [drawing 125],pest or weed control at 500 g/ha,Puccinia recondita,100%
CCOC(=O)c1sc(C)nc1OC(F)F [II-6],chromatographic logP,[1],2.54
Cc1nc(C(F)(F)F)c(C(=O)Nc2ccc(F)cc2C(C)CC(C)C)s1 (stereo not shown) [drawing 127],pest or weed control at 500 g/ha,Puccinia recondita,100%
CC(C)CC(C)c1ccccc1NC(=O)c1cn(C)nc1C(C)F (stereo not shown) [drawing 86],pest or weed control at 100 g/ha,Podosphaera leucotricha,100%
COc1nc(C)sc1C(=O)O [II-2],chromatographic logP,[1],0.77
Cc1nc(C(F)F)c(C(=O)Nc2ccc(F)cc2C(C)CC(C)C)s1 (stereo not shown) [drawing 104],pest or weed control at 100 g/ha,Venturia inaequalis,100%
COC(=O)c1cn(C)nc1C=O [Example X-1],chromatographic logP,[1],0.46
Cc1nc(C(F)F)c(C(=O)Nc2ccc(F)cc2C(C)CC(C)C)s1 (stereo not shown) [drawing 92],pest or weed control at 100 g/ha,Podosphaera leucotricha,100%
CC(C)CC(C)c1ccccc1NC(=O)c1scnc1Cl (stereo not shown) [drawing 94],pest or weed control at 100 g/ha,Venturia inaequalis,99%
CC(C)CC(C)c1cc(F)ccc1NC(=O)c1cn(C)nc1C(F)F (stereo not shown) [drawing 111],pest or weed control at 500 g/ha,Botrytis cinerea,100%
CCOC(=O)c1cn(C)nc1OC [II-4],chromatographic logP,[1],1.14
CC1=C(C(=O)Nc2ccc(F)cc2C(C)CC(C)C)SCCO1 (stereo not shown) [drawing 93],pest or weed control at 100 g/ha,Podosphaera leucotricha,100%
CC(C)CC(C)c1ccccc1NC(=O)c1cn(C)nc1Cl (stereo not shown) [drawing 108],pest or weed control at 100 g/ha,Botrytis cinerea,100%
Cc1ccsc1C(=O)Nc1ccc(F)cc1C(C)CC(C)C (stereo not shown) [drawing 114],pest or weed control at 500 g/ha,Botrytis cinerea,98%
CC(C)CC(C)c1ccccc1NC(=O)c1cn(C)nc1Cl (stereo not shown) [drawing 85],pest or weed control at 100 g/ha,Podosphaera leucotricha,100%
CC1=C(C(=O)Nc2ccc(F)cc2C(C)CC(C)C)SCCO1 (stereo not shown) [drawing 116],pest or weed control at 500 g/ha,Botrytis cinerea,100%
Cc1sccc1C(=O)Nc1ccc(F)cc1C(C)CC(C)C (stereo not shown) [drawing 101],pest or weed control at 100 g/ha,Venturia inaequalis,94%
Cc1nc(C(F)(F)F)c(C(=O)Nc2ccc(F)cc2C(C)CC(C)C)s1 (stereo not shown) [drawing 90],pest or weed control at 100 g/ha,Podosphaera leucotricha,100%
CC(C)CC(C)c1ccccc1NC(=O)c1scnc1Cl (stereo not shown) [drawing 82],pest or weed control at 100 g/ha,Podosphaera leucotricha,100%
Cc1nc(C(F)F)c(C(=O)Nc2ccc(F)cc2C(C)CC(C)C)s1 (stereo not shown) [drawing 129],pest or weed control at 500 g/ha,Puccinia recondita,100%
Cc1sccc1C(=O)Nc1ccc(F)cc1C(C)CC(C)C (stereo not shown) [drawing 112],pest or weed control at 500 g/ha,Botrytis cinerea,100%
CC(C)CC(C)c1cc(F)ccc1NC(=O)c1cn(C)nc1C(F)(F)F (stereo not shown) [drawing 121],pest or weed control at 500 g/ha,Puccinia recondita,100%
"CC(C)CC(C)c1ccccc1NC(=O)c1cn(C)nc1C=O (stereo not shown) [Example 2, N-[2-(1,3-dimethylbutyl)phenyl]-3-formyl-1-methyl-1H-pyrazole-4-carboxamide]",chromatographic logP,[1],3.64
CC(C)CC(C)c1ccccc1NC(=O)c1cn(C)nc1Cl (stereo not shown) [drawing 120],pest or weed control at 500 g/ha,Puccinia recondita,100%
Cn1cc(C(=O)O)c(C=O)n1 [XI-1],chromatographic logP,[1],-0.19
CC(C)CC(C)c1cc(F)ccc1NC(=O)c1cn(C)nc1C(F)F (stereo not shown) [drawing 100],pest or weed control at 100 g/ha,Venturia inaequalis,100%
CC(C)CC(C)c1cc(F)ccc1NC(=O)c1cn(C)nc1C(F)(F)F (stereo not shown) [drawing 99],pest or weed control at 100 g/ha,Venturia inaequalis,100%
CC(C)CC(C)c1ccccc1NC(=O)c1scnc1Cl (stereo not shown) [drawing 106],pest or weed control at 100 g/ha,Botrytis cinerea,99%
Cc1sccc1C(=O)Nc1ccccc1C(C)CC(C)C (stereo not shown) [drawing 118],pest or weed control at 500 g/ha,Puccinia recondita,100%
COC(=O)c1cn(C)nc1C(Cl)Cl [XII-1],chromatographic logP,[1],1.8
CC(C)CC(C)c1cc(F)ccc1NC(=O)c1cn(C)nc1C(F)(F)F (stereo not shown) [drawing 110],pest or weed control at 500 g/ha,Botrytis cinerea,99%
CC1=C(C(=O)Nc2ccc(F)cc2C(C)CC(C)C)SCCO1 (stereo not shown) [drawing 130],pest or weed control at 500 g/ha,Puccinia recondita,100%
Cc1nc(OC(F)F)c(C(=O)O)s1 [II-7],chromatographic logP,[1],1.29
CC(C)CC(C)c1ccccc1NC(=O)c1cn(C)nc1C(C)F (stereo not shown) [drawing 109],pest or weed control at 500 g/ha,Botrytis cinerea,99%
CC(C)CC(C)c1cc(F)ccc1NC(=O)c1cn(C)nc1Cl (stereo not shown),pest or weed control at 500 g/ha,Puccinia recondita,100%
Cc1ccsc1C(=O)Nc1ccc(F)cc1C(C)CC(C)C (stereo not shown) [drawing 128],pest or weed control at 500 g/ha,Puccinia recondita,100%
CC(C)CC(C)c1ccccc1NC(=O)c1ccoc1C(F)(F)F (stereo not shown) [drawing 119],pest or weed control at 500 g/ha,Puccinia recondita,100%
CC(C)CC(C)c1cc(F)ccc1NC(=O)c1cn(C)nc1C(F)(F)F (stereo not shown) [drawing 87],pest or weed control at 100 g/ha,Podosphaera leucotricha,88%
"CC(C)CC(C)c1ccccc1NC(=O)c1cn(C)nc1C(Cl)Cl (stereo not shown) [Example 1, 3-(dichloromethyl)-1-methyl-N-[2-(1,3-dimethylbutyl)phenyl]-1H-pyrazole-4-carboxamide]",chromatographic logP,[1],3.74
Cc1sccc1C(=O)Nc1ccc(F)cc1C(C)CC(C)C (stereo not shown) [drawing 89],pest or weed control at 100 g/ha,Podosphaera leucotricha,100%
Cc1occc1C(=O)Nc1ccc(F)cc1C(C)CC(C)C (stereo not shown),pest or weed control at 500 g/ha,Puccinia recondita,100%
CC(C)CC(C)c1ccccc1NC(=O)c1cn(C)nc1Cl (stereo not shown) [drawing 97],pest or weed control at 100 g/ha,Venturia inaequalis,100%
"COc1nc(C)sc1C(=O)Nc1ccccc1C(C)CC(C)C (stereo not shown) [Example 3, N-[2-(1,3-dimethylbutyl)phenyl]-4-methoxy-2-methyl-1,3-thiazole-5-carboxamide]",chromatographic logP,[1],4.45
CC(C)CC(C)c1ccccc1NC(=O)c1cn(C)nc1C(C)F (stereo not shown) [drawing 98],pest or weed control at 100 g/ha,Venturia inaequalis,100%
CC1=C(C(=O)Nc2ccc(F)cc2C(C)CC(C)C)SCCO1 (stereo not shown) [drawing 105],pest or weed control at 100 g/ha,Venturia inaequalis,100%
CC(C)CC(C)c1ccccc1NC(=O)c1ccoc1C(F)(F)F (stereo not shown) [drawing 96],pest or weed control at 100 g/ha,Venturia inaequalis,96%
Cc1sccc1C(=O)Nc1ccccc1C(C)CC(C)C (stereo not shown) [drawing 95],pest or weed control at 100 g/ha,Venturia inaequalis,100%
CC(C)CC(C)c1cc(F)ccc1NC(=O)c1cn(C)nc1C(F)F (stereo not shown) [drawing 124],pest or weed control at 500 g/ha,Puccinia recondita,100%
"Cc1nc(O)c(C(=O)Nc2ccccc2C(C)CC(C)C)s1 (stereo not shown) [Example 4, N-[2-(1,3-dimethylbutyl)phenyl]-4-hydroxy-2-methyl-1,3-thiazole-5-carboxamide]",chromatographic logP,[1],2.68
CCOC(=O)c1sc(C)nc1OC [II-1],chromatographic logP,[1],1.9
CC(C)CC(C)c1cc(F)ccc1NC(=O)c1cn(C)nc1C(F)F (stereo not shown) [drawing 88],pest or weed control at 100 g/ha,Podosphaera leucotricha,100%
CC(C)CC(C)c1ccccc1NC(=O)c1ccoc1C(F)(F)F (stereo not shown) [drawing 84],pest or weed control at 100 g/ha,Podosphaera leucotricha,98%
Cc1nc(C(F)(F)F)c(C(=O)Nc2ccc(F)cc2C(C)CC(C)C)s1 (stereo not shown) [drawing 102],pest or weed control at 100 g/ha,Venturia inaequalis,100%
Cc1ccsc1C(=O)Nc1ccc(F)cc1C(C)CC(C)C (stereo not shown) [drawing 91],pest or weed control at 100 g/ha,Podosphaera leucotricha,99%
Cc1nc(C(F)(F)F)c(C(=O)Nc2ccc(F)cc2C(C)CC(C)C)s1 (stereo not shown) [drawing 113],pest or weed control at 500 g/ha,Botrytis cinerea,100%
Cc1nc(C(F)F)c(C(=O)Nc2ccc(F)cc2C(C)CC(C)C)s1 (stereo not shown) [drawing 115],pest or weed control at 500 g/ha,Botrytis cinerea,100%
